The record followed here is publication PMC8658016, “Identification of New Compounds with Anticonvulsant and Antinociceptive Properties in a Group of 3-substituted (2,5-dioxo-pyrrolidin-1-yl)(phenyl)-Acetamides” (International Journal of Molecular Sciences, 2021).

The test system of data set [1] is rats. Nature of the data set: Carrageenan-induced paw edema. The data set is classed as in vivo, rat. The following applies: 80 mg/kg. From the text:
To test the anti-inflammatory activity and the potential to attenuate inflammatory pain, we tested compound 14 in the model of carrageenan-induced aseptic inflammation. In this model, the subplantar injection of carrageenan induced an edema, mechanical, and thermal hyperalgesia. […] In our opinion, the most surprising and interesting was the long-lasting anti-edematous effect. It may result from the pharmacokinetic properties of compound 14, but also from its unique mechanism. Since inflammation is one of the critical components of neuropathy, the anti-inflammatory activity of compound 14 may be a valuable and distinctive property from classical ASDs used to treat neuropathic pain [33]. […] The pain threshold reached 87.3%, 90.9%, and 89.7% of its initial value 3, 6, and 24 h after carrageenan injection, respectively. […] The initial latency for compound 14-treated animals was 8.95 ± 0.4 s. The administration of compound 14 changed the values to 127.0%, 102.0%, 79.8%, 83.8%, and 164.4% of the initial value 1, 2, 3, 6-, and 24-h following carrageenan injection, respectively.
The experiments were conducted on adult male Albino Swiss mice (CD-1, 18–25 g) and male Wistar rats (Krf:(WI) WU), 180–250 g) as described previously. The minimum number of animals used needed to obtain definite and normally distributed results with the utilized test. Behavioral measures were scored by trained observers, which were blind to experimental conditions. The following devices were used in the experiments: Analgesy Meter (37215, Ugo Basile), Plantar Test Apparatus (EFV5, Commat Ltd., Turkey), Plethysmometer (Plethysmometer 7140, Ugo Basile), Electronic von Frey unit (BIOSEB, France). All procedures were performed according to the European Union Directive of 22 September 2010 (2010/63/EU) and approved by the Local Ethics Committee for Experiments on Animals in Krakow, Poland (resolution no. 105/2016).
Figure 8 Effect of compound 14 on carrageenan-induced oedema (A), mechanical hyperalgesia (B), and thermal hyperalgesia (C), developed after subplantar injection of 1% carrageenan in rats. Data are expressed as means ± S.E.M. for 6 animals; 0—the initial value considered as the paw volume (A) or nociceptive reaction (B,C) before carrageenan administration. Statistical significance compared to vehicle-treated animals (control): * p < 0.05, ** p < 0.01, *** p < 0.001, **** p < 0.0001. Statistical analysis: two-way ANOVA post hoc Bonferroni test. Statistical significance in different time points of control group: ^# p < 0.05, ^## p < 0.01, ^### p < 0.001. Statistical analysis: one-way ANOVA, followed by Dunnett’s multiple comparison test (GraphPad Prism 8.0.1).
For orientation: In the carrageenan paw model, swelling and tenderness develop within hours.

Data set [2] deals with T1, CYP2D6 (Homo sapiens, UniProt P10635).
T1 construct: purchased Promega (Madison, WI, USA)
Nature of the data set: CYP2D6 P450-Glo luminescent assay. Conditions: 1 and 10 µM. The data set is classed as in vitro ADME.

T1 sequence (P10635 whole entry): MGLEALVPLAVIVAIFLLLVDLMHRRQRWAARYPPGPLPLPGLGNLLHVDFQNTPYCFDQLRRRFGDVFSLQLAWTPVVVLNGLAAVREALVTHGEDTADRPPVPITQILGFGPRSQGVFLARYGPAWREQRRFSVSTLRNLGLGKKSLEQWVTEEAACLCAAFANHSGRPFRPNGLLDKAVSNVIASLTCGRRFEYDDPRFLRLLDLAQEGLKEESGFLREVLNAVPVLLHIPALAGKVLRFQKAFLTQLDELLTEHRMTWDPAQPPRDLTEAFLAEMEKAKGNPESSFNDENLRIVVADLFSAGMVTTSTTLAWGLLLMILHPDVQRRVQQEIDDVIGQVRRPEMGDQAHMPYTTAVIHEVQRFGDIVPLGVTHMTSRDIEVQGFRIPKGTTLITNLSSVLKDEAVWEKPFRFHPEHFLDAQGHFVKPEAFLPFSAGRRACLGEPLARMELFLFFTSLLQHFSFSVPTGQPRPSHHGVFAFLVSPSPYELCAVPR

On to `CN(C)C1CC(=O)N(C(C(=O)N2CCN(c3cccc(C(F)(F)F)c3)CC2)c2ccccc2)C1=O.Cl` (stereo not drawn) [Compound 14, 3-(Dimethylamino)-1-(2-oxo-1-phenyl-2-(4-(3-(trifluoromethyl)phenyl)-piperazin-1-yl)ethyl)pyrrolidine-2,5-dione hydrochloride], for which the “reduction of paw edema” value amounted to 36.8% in data set [1] (1 h after carrageenan); 55.8% in data set [1] (2 h after carrageenan); 62.9% in data set [1] (3 h after carrageenan); 68.6% in data set [1] (6 h after carrageenan); 74.3% in data set [1] (24 h after carrageenan). Moreover, the “effect on CYP2D6 activity” value in data set [2] is “significant activation”.
